Experimental findings from US20260078122A1, “INDAZOLE COMPOUNDS AS PKMYT1 KINASE INHIBITORS” (Hoffmann-La Roche Inc., priority 2023, published 2026) are described below.

The IC50 is the concentration that inhibits the measured activity by half.

The experiment concerns the target T1, recombinant human Myt1 (full length PKMYT1) (Homo sapiens, UniProt Q99640).
T1 sequence (Q99640 1-499): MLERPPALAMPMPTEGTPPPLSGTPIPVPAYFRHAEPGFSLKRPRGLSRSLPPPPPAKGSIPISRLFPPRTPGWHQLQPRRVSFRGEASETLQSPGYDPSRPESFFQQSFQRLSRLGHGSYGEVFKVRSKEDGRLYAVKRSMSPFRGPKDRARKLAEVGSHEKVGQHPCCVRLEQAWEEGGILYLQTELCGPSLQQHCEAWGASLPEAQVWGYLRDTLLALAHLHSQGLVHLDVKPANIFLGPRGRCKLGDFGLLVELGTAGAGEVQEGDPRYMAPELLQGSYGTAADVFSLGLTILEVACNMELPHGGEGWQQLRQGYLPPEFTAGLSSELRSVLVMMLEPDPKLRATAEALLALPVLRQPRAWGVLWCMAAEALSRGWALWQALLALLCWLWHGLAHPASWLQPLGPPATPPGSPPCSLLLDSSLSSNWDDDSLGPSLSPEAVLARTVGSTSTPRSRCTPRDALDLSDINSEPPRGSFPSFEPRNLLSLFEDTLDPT
Description: ADP-Glo assay (Myt1 kinase activity). (In general: ADP-Glo first removes unused ATP, then detects ADP through luciferase.)
For the compound `Cc1cc2[nH]c(=O)c(N)c(-c3ccc(F)c4[nH]ncc34)c2nc1N1CCN(C2CC2)CC1` [Example 29, 3-Amino-6-(4-cyclopropylpiperazin-1-yl)-4-(7-fluoro-1H-indazol-4-yl)-7-methyl-1H-1,5-naphthyridin-2-one], the IC50 is 0.012 µM.

On to `Cc1cc2[nH]c(=O)c(N)c(-c3ccc(F)c4[nH]ncc34)c2nc1N1CCNCC1` [Example 44, 3-Amino-4-(7-fluoro-1H-indazol-4-yl)-7-methyl-6-piperazin-1-yl-1H-1,5-naphthyridin-2-one], for which the IC50 was less than 0.01 µM.

As for `CCCOc1nc2c(-c3ccc(F)c4[nH]ncc34)c(N)c(=O)[nH]c2cc1C` [Example 065, 3-Amino-4-(7-fluoro-1H-indazol-4-yl)-7-methyl-6-propoxy-1H-1,5-naphthyridin-2-one], the IC50 was found to be 0.0147 µM. The figure for `Cc1cc2[nH]c(=O)c(N)c(-c3ccc(F)c4[nH]ncc34)c2nc1N1CC2(CN(C)C2)C1` [Example 27, 3-Amino-4-(7-fluoro-1H-indazol-4-yl)-7-methyl-6-(6-methyl-2,6-diazaspiro[3.3]heptan-2-yl)-1H-1,5-naphthyridin-2-one] is 0.0212 µM; for `Cc1cc2[nH]c(=O)c(N)c(-c3ccc(F)c4[nH]ncc34)c2nc1O[C@H]1C[C@H](F)C1` [Example 080, trans-3-Amino-6-(3-fluorocyclobutoxy)-4-(7-fluoro-1H-indazol-4-yl)-7-methyl-1H-1,5-naphthyridin-2-one] it is 0.0211 µM. As for `COc1nc(C2CC2)cc2[nH]c(=O)c(N)c(-c3ccc(F)c4[nH]ncc34)c12` [Example 169, 3-Amino-7-cyclopropyl-4-(7-fluoro-1H-indazol-4-yl)-5-methoxy-1H-1,6-naphthyridin-2-one], the IC50 was 0.0134 µM. Regarding `COc1nc2c(-c3ccc(F)c4[nH]ncc34)c(N)c(=O)[nH]c2cc1C` [Example 060, 3-Amino-4-(7-fluoro-1H-indazol-4-yl)-6-methoxy-7-methyl-1H-1,5-naphthyridin-2-one], the IC50 is less than 0.01 µM. In the case of `Nc1c(-c2ccc(F)c3[nH]ncc23)c2ncc(-c3nccs3)cc2[nH]c1=O` [Example 16, 3-Amino-4-(7-fluoro-1H-indazol-4-yl)-7-thiazol-2-yl-1H-1,5-naphthyridin-2-one] it was 0.0113 µM.

On to `Cc1cc2[nH]c(=O)c(N)c(-c3ccc(F)c4[nH]ncc34)c2nc1-c1ncco1` [Example 154, 3-Amino-4-(7-fluoro-1H-indazol-4-yl)-7-methyl-6-oxazol-2-yl-1H-1,5-naphthyridin-2-one], for which the IC50 was less than 0.01 µM. As to `Cn1cncc1-c1cnc2c(-c3ccc(F)c4[nH]ncc34)c(N)c(=O)[nH]c2c1` [Example 8, 3-Amino-4-(7-fluoro-1H-indazol-4-yl)-7-(3-methylimidazol-4-yl)-1H-1,5-naphthyridin-2-one], the IC50 turned out to be 0.0116 µM. With `Cc1cc(C#CC(C)(C)O)nc2c(-c3ccc(F)c4[nH]ncc34)c(N)c(=O)[nH]c12` [Example 148, 3-Amino-4-(7-fluoro-1H-indazol-4-yl)-6-(3-hydroxy-3-methyl-but-1-ynyl)-8-methyl-1H-1,5-naphthyridin-2-one], the half-maximal inhibitory concentration (IC50) was less than 0.01 µM.

On to `Cc1cc2[nH]c(=O)c(N)c(-c3ccc(F)c4[nH]ncc34)c2nc1OCC1CC1` [Example 47, 3-Amino-6-(cyclopropylmethoxy)-4-(7-fluoro-1H-indazol-4-yl)-7-methyl-1H-1,5-naphthyridin-2-one], for which the half-maximal inhibitory concentration (IC50) is less than 0.01 µM. As to `Cc1cc(Cl)c2c(-c3ccc(F)c4[nH]ncc34)c(N)c(=O)[nH]c2c1` [Example 103, 3-Amino-5-chloro-4-(7-fluoro-1H-indazol-4-yl)-7-methyl-1H-quinolin-2-one], the IC50 is less than 0.01 µM.

Take `Nc1c(-c2cc(F)cc3[nH]ncc23)c2ncc(Cl)cc2[nH]c1=O` [Example 36, 3-Amino-7-chloro-4-(6-fluoro-1H-indazol-4-yl)-1H-1,5-naphthyridin-2-one]: the IC50 is 0.0378 µM.

Consider `COC(=O)c1nc2c(-c3ccc(F)c4[nH]ncc34)c(N)c(=O)[nH]c2cc1C` [Example 087, Methyl 7-amino-8-(7-fluoro-1H-indazol-4-yl)-3-methyl-6-oxo-5H-1,5-naphthyridine-2-carboxylate], for which the IC50 came to 0.0123 µM. Turning to `Cc1ncc(OC2CCC2)c2c(-c3ccc(F)c4[nH]ncc34)c(N)c(=O)[nH]c12` [Example 189, 3-Amino-5-(cyclobutoxy)-4-(7-fluoro-1H-indazol-4-yl)-8-methyl-1H-1,7-naphthyridin-2-one], the IC50 came to 0.0106 µM.

With `C#Cc1nc2c(-c3ccc(F)c4[nH]ncc34)c(N)c(=O)[nH]c2c(Cl)c1C` [Example 111, 3-Amino-8-chloro-6-ethynyl-4-(7-fluoro-1H-indazol-4-yl)-7-methyl-1H-1,5-naphthyridin-2-one], the IC50 is less than 0.01 µM.

For the compound `Cc1cc2[nH]c(=O)c(N)c(-c3ccc(F)c4[nH]ncc34)c2nc1-c1nccs1` [Example 153, 3-Amino-4-(7-fluoro-1H-indazol-4-yl)-7-methyl-6-thiazol-2-yl-1H-1,5-naphthyridin-2-one], the IC50 is 0.0118 µM. In the case of `Nc1c(-c2ccc(F)c3[nH]ncc23)c2c(OC(F)F)nc(C3CC3)cc2[nH]c1=O` [Example 168, 3-Amino-7-cyclopropyl-5-(difluoromethoxy)-4-(7-fluoro-1H-indazol-4-yl)-1H-1,6-naphthyridin-2-one] it was 0.0112 µM. For `Cc1c(C2CC2)nc2c(-c3ccc(F)c4[nH]ncc34)c(N)c(=O)[nH]c2c1C1CC1` [Example 114, 3-Amino-6,8-dicyclopropyl-4-(7-fluoro-1H-indazol-4-yl)-7-methyl-1H-1,5-naphthyridin-2-one], the IC50 came to 0.0136 µM. For `Cc1nc2c(-c3ccc(F)c4[nH]ncc34)c(N)c(=O)[nH]c2cc1Cl` [Example 52, 3-Amino-7-chloro-4-(7-fluoro-1H-indazol-4-yl)-6-methyl-1H-1,5-naphthyridin-2-one], the IC50 was less than 0.01 µM. Consider `COc1c(C)cnc2c(-c3ccc(F)c4[nH]ncc34)c(N)c(=O)[nH]c12` [Example 51, 3-Amino-4-(7-fluoro-1H-indazol-4-yl)-8-methoxy-7-methyl-1H-1,5-naphthyridin-2-one], for which the IC50 worked out at 0.0179 µM. For `Cc1cc2[nH]c(=O)c(N)c(-c3ccc(F)c4[nH]ncc34)c2nc1Cl` [Example 3, 3-Amino-6-chloro-4-(7-fluoro-1H-indazol-4-yl)-7-methyl-1H-1,5-naphthyridin-2-one], the IC50 was less than 0.01 µM.

`Cc1cc2[nH]c(=O)c(N)c(-c3ccc(F)c4[nH]ncc34)c2cc1C` [Example 48, 3-Amino-4-(7-fluoro-1H-indazol-4-yl)-6,7-dimethyl-1H-quinolin-2-one]: the IC50 is 0.0271 µM. The figure for `Cc1cc2[nH]c(=O)c(N)c(-c3ccc(F)c4[nH]ncc34)c2nc1OCC(C)(C)O` [Example 078, 3-Amino-4-(7-fluoro-1H-indazol-4-yl)-6-(2-hydroxy-2-methyl-propoxy)-7-methyl-1H-1,5-naphthyridin-2-one] is 0.0172 µM; for `Cc1c(C2(C)CC2)cnc2c(-c3ccc(F)c4[nH]ncc34)c(N)c(=O)[nH]c12` [Example 129, 3-Amino-4-(7-fluoro-1H-indazol-4-yl)-8-methyl-7-(1-methylcyclopropyl)-1H-1,5-naphthyridin-2-one] it is 0.0128 µM.
